Assay results reported in US20100298377A1, “NOVEL SUBSTITUTED INDAZOLES, THE PREPARATION THEREOF AND USE OF SAME IN THERAPEUTICS” (SANOFI-AVENTIS, priority 2007, published 2010).
Read-outs that look alike come from different tables or passages of the source.

Assays:
[1] = biological target: T1, Human S6K1 (24-421) T412E protein (Homo sapiens, UniProt P23443, T412E); experiment: Determination of the IC50 for S6K1 (HTRF substrate phosphorylation test); assay type: biochemical; settings: S6K1 activated by PDK1, ATP 30 μM
T1 construct: Human S6K1 (24-421) T412E protein; made in house; host or cells: Sf21 insect cells
Protocol: Determination of the IC50 for S6K1
The inhibitory potential of the compounds for S6K1 is evaluated in an enzymatic test of phosphorylation of substrate in HTRF (Homogenous Time-Resolved Fluorescence) format. Human S6K1 (24-421) T412E protein is expressed in sf21 cells and purified by chromatography on a nickel chelate column. It is activated by PDK1.
The test comprises two steps, both performed at RT. The phosphorylation reaction takes place during the first step and the revelation step is performed during the second. […] The final concentrations of compounds thus obtained during the incubation period range from 10 μM to 0.17 nM and the concentration of enzyme is 2 nM. After incubation for 20 minutes, the reaction is stopped and the revelation initiated by addition of 30 μl of a mixture of streptavidin XL 665 Xlent, ref. 611SAXLB Cis bio international, and a europium cryptate-coupled anti-phospho-GSK3 antibody, ref. 64CUSKAZ Cis bio international, dissolved in the revelation buffer (HEPES/NaOH 166.7 mM, EDTA 221.7 mM, KF 667.7 mM, BSA 0.167%, pH 7.0). The reaction takes place in a black half-well plate ref. 3694 Costar.
A mixture of the reaction medium after each addition of reagent is obtained by agitation for a few minutes at 700-1000 rpm on a Heidolph Titramax 100 machine. The reading is taken on a TECAN Ultra Evolution machine after at least one night and up to 3 nights at 4° C. The reading settings are as follows: excitation wavelength 320 nm, emission wavelengths 620 and 665 nm, lag time 150 μs, integration time 500 μs.
For each point, the ΔF % is calculated as follows:
(§1) R(Ratio)=counts665 nm/counts620 nm
The IC50 values are calculated by means of the XLfit4 205 equation.

AKT1 = AKT1 (Homo sapiens, UniProt P31749, S473D); experiment: Determination of the IC50 for AKT1 (HTRF); assay type: biochemical; settings: AKT1 without PH domain, activated by PDK1
Protocol: Determination of the IC50 for AKT1
The inhibitory potential of the compounds is evaluated by HTRF, a time-resolved fluorescence technique based on non-radiative energy transfer (FRET). […] This phosphorylation allows the kinase activity of AKT1 to be activated.
Starting with a 10 mM solution of inhibitors, 3 μl are taken and placed in a 96-well polypropylene plate containing 27 μl of 100% DMSO. The various test compounds are diluted in cascade by taking 15 μl of compound, to which are added 30 μl of 100% DMSO.
The various reaction components are added in the following manner:
Next, 10 μl of the inhibitor solution are added. Finally, the reaction is initiated by adding 10 μl of a solution containing both 100 μM of ATP and 10 μM of biotinylated peptide. The sequence of this peptide is as follows: biot-[…] (reference Neosystem SP000560). The plate is then covered with a plastic film, agitated and finally incubated at RT for 30 minutes. […] After incubation overnight at 4° C., the plate is read using an Ultra evolution spectrophotometer from Tecan. […] All the tests are performed in duplicate and the mean of the two tests is calculated.
For each point, a delta F is calculated in the following manner:
as §1
ΔF % is calculated by the Tecan Ultra Evolution machine.

[2] = system: MIA PaCa-2 cells (human pancreatic carcinoma cells); experiment: Proliferation of MIA PaCa-2 cells, intracellular ATP, CellTiter-Glo test; assay type: cell-based; settings: 96 hours
From the text: (§2) b. Study of the Proliferation of Human Tumoral MIA PaCa-2, C-433, LnCaP and MCF7 Cells via Assay of the Intracellular ATP Using the Celltiter-Glo™ Test
(§3) The kit CellTiter-Glo™ for measuring cell viability via luminescence ([…]) is a homogeneous method for determining the number of viable cells in culture, based on quantification of the ATP present in the cells, and which indicates the presence of metabolically active cells.
(§4) The cell lines used in this test were the following: MIA PaCa-2 cells (human pancreatic carcinoma cells, ATCC, CRL-1420), C-433 cells (human Ewing sarcoma cells, DSMZ, ACC 268), LNCaP clone FGC cells (human prostate carcinoma cells, ATCC, CRL-1740), MCF7 cells (human breast carcinoma cells, ECACC, #86012803). The cells MIAPaCa-2 and LNCaP were cultured in D-MEM culture medium (Invitrogen Gibco, #419656-039) containing 10% foetal calf serum (FCS, Invitrogen Gibco, #10500-064) and 2 mM L-Glutamine (Invitrogen Gibco, #25030-024); the C-433 cells were cultured in MCCoy's 5A culture medium (Invitrogen Gibco, #26600-023)/RPMI 1640 (Invitrogen Gibco, #31870-025) (50/50) containing 10% FCS and 2 mM L-glutamine; the MCF7 cells were cultured in EMEM culture medium (EMEM, Biowhittaker, Lonza, #BE12-662F) containing 10% FCS and 2 mM L-Glutamine.
(§5) Evaluation of the Cell Viability via Luminescence Measurement: Celltiter-Glo™ Test
(§6) On day 1, the cells were inoculated at 1000 (C-433), 2500 (MCF7) and 10000 (LNCaP and MIA PaCa-2) cells per well in black-bottomed 96-well microplates (NUNC fluoronunc, Fisherbioblock 2311K) in 135 μl of whole culture medium and incubated at 37° C., 5% CO2, for 3 to 6 hours. The cells were then incubated with increasing concentrations of molecules diluted in dimethyl sulfoxide (DMSO, Sigma D2650). The molecules were added in a volume of 15 μl of a 10-fold concentrated solution in a final volume of 150 μl, the final percentage of DMSO being 0.1%. The cells were incubated at 37° C., 5% CO2, for 96 hours. After 4 days of treatment with the molecules, the CellTiter-Glo™ was performed by following the manufacturer's instructions (Kit Celltiter-Glo Luminescent, PROMEGA #G7571). Briefly, the cell plates were equilibrated for about 30 minutes at RT and 100 μl per well of Celltiter-Glo reagent were added. The cells were incubated for 1 hour at RT for lysis of the cells and stabilization of the signal. The intracellular ATP was quantified by measuring the luminescence in rlu units (relative luminescence units), 96 hours after initiation of the treatment, using a luminescence counter (Wallac). The tests were performed in six replicates.
(§7) i) the mean±s.e.m. of each series of well replicates was calculated;
(§8) ii) the maximum response is given by positive control wells containing untreated cells; this control was performed in 12 replicates;
(§9) iii) the minimum response is given by cell-free and untreated negative control wells; this control was performed in 6 replicates;
(§10) iv) using these maximum (100%) and minimum (0%) response values, respectively, the data were normalized to give a percentage relative to the maximum response;
(§11) The IC50 values were calculated by […] with the XLfit software (IDBS, UK) using formula 205.

[3] = system: MEF-IGF1 murine fibroblast cells; experiment: IGF1-dependent proliferation of MEF-IGF1 cells via incorporation of [14C]-thymidine; assay type: cell-based; settings: [14C]-thymidine incorporation, IGF1 stimulated, 72 hours, read-out: IC50 MEF-IGF
From the text: a. Study of the IGF1-Dependent Proliferation of MEF-IGF1 Murine Fibroblast Cells Measured via Incorporation of [14C]-Thymidine
This test is based on the incorporation of [^14C]-thymidine into the DNA of the cells for the S phase of the cell cycle during cell division. The cell line used in this test is the MEF/3T3 Tet-Off Clone 18 line obtained by stable transfection of the human receptor IGF1R in murine MEF/3T3 Tet-Off fibroblasts. To measure the IGF1-dependent cell proliferation, the cells were deprived of serum and cultured for 3 days in the serum-free culture medium in the presence of the growth factor IGF1 which stimulates the proliferation of MEF-IGF1 cells.
Test of Incorporation of [^14C]-Thymidine into MEF-IGF1 Cells
On day 1, the cells were inoculated with 7500 cells per well in Cytostar 96-well microplates (Amersham (GE) RPNQ0162) in 200 μl of EMEM medium (EMEM, Biowhittaker, #BE12-662F) containing 10% foetal calf serum (FCS, TET-BD Biosciences Tet System Approved FBS US-Sourced, #8630-1) and 1% PSG (Penicillin-Streptomycin-Glutamine (PSG), Gibco #10378-016), and incubated at 37° C., 5% CO2, for 24 hours. On day 2, the cells were washed in the FCS-free EMEM culture medium containing 1% PSG, and incubated in 170 μl of this serum-free culture medium at 37° C., 5% CO2, for 24 hours. On day 3, the cells were incubated with 10 μl of IGF1 (2 μg/ml of final concentration; recombinant human IGF-1, R & D Systems, #291-G1), 10 μl (0.1 μCi) of [^14C]-Thymidine (NEN NEC-568) plus 10 μl of increasing concentrations of the test molecules, diluted in dimethyl sulfoxide (DMSO, Sigma D2650). The molecules were added in a volume of 10 μl of a 20-fold concentrated solution in a final volume of 200 μl, the final percentage of DMSO being 0.1%. The treated cells were incubated at 37° C., 5% CO2, for 72 hours. The incorporation of [^14C]-Thymidine was quantified in cpm units (counts per minute) by counting the radioactivity 72 hours after the start of the treatment, using a Micro-Beta radioactivity counter (Perkin-Elmer). The tests were performed in duplicate.
as §7
ii) the background noise is calculated by preparing cell-free, IGF1-free and untreated control wells; this control was performed in 4 replicates. The background noise was removed at each measurement;
iii) the maximum response is given by positive control wells containing cells in the presence of IGF1 but untreated; this control was performed in 4 replicates;
iv) the minimum response is given by negative control wells containing IGF1-free and untreated cells; this control was performed in 4 replicates;
as §11

[4] = system: LNCaP clone FGC cells (human prostate carcinoma cells); experiment: Proliferation of LNCaP cells, intracellular ATP, CellTiter-Glo test; assay type: cell-based; settings: 96 hours
From the text: as §2, §3, §4, §5, §6, §7, §8, §9, §10, §11

[5] = system: C-433 cells (human Ewing sarcoma cells); experiment: Proliferation of C-433 cells, intracellular ATP, CellTiter-Glo test; assay type: cell-based; settings: 96 hours
From the text: as §2, §3, §4, §5, §6, §7, §8, §9, §10, §11

[6] = system: MCF7 cells (human breast carcinoma cells); experiment: Proliferation of MCF7 cells, intracellular ATP, CellTiter-Glo test; assay type: cell-based; settings: 96 hours
From the text: as §2, §3, §4, §5, §6, §7, §8, §9, §10, §11

Chain of AKT1 (P31749 118-480 S473D limits assumed): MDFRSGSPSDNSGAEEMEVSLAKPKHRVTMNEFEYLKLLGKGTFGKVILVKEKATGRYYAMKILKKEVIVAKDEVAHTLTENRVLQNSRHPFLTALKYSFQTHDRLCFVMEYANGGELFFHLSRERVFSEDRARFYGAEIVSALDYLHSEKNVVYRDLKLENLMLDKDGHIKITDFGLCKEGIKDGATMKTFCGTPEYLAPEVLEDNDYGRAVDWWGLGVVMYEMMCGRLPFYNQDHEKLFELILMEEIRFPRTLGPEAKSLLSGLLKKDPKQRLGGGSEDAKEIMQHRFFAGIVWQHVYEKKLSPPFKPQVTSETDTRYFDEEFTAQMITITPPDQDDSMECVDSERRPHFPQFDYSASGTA
T1 sequence (P23443 24-421 T412E): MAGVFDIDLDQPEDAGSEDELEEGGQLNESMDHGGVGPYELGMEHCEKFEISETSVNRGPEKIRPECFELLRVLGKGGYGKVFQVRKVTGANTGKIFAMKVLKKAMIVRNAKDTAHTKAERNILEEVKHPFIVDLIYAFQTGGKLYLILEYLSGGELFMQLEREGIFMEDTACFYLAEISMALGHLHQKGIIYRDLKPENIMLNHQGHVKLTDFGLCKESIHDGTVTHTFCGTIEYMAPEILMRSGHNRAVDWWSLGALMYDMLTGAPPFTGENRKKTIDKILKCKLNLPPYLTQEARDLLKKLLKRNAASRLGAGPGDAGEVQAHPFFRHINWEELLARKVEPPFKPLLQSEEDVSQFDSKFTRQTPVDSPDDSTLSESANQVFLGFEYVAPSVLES

Compound | IC50 (AKT1) [nM] | IC50 [2] [nM] | further results
O=C(Nc1ccc2[nH]ncc2c1)N[C@H](c1ccc(Cl)c(Cl)c1)[C@H]1CCCCN1 [Ex 6, 1-{(R)-(3,4-Dichlorophenyl)[(2R)-piperid-2-yl]methyl}-3-(1H-indazol-5-yl)urea] | < 100 | 2900 | IC50 [1]: 100 to 500 nM
O=C(Nc1ccc2[nH]ncc2c1)N[C@@H](c1cc(Cl)cc(Cl)c1)[C@@H]1CCCCN1 [Ex 7, 1-{(S)-(3,5-Dichlorophenyl)[(2S)-piperid-2-yl]methyl}-3-(1H-indazol-5-yl)urea] | < 100 | 9320 | IC50 ([3]; Mus musculus, Fibroblast): 280 nM; IC50 ([4]; Homo sapiens, LNCaP-Clone-FGC): 5000 nM
CN1CCCCC1C(NC(=O)Nc1ccc2[nH]nc(-c3ccccn3)c2c1)c1ccccc1 [Ex 15, 1-[(1-Methylpiperid-2-yl)(phenyl)methyl]-3-(3-pyrid-2-yl-1H-indazol-5-yl)urea((S,2S),(R,2R))] | 100 to 500 | 2800 | –
O=C(Nc1ccc2[nH]nc(-c3ccncc3)c2c1)N[C@@H](c1ccc(Cl)c(Cl)c1)[C@@H]1CCCCN1 [Ex 16, 1-{(S)-(3,4-Dichlorophenyl)[(2S)-piperid-2-yl]methyl}-3-(3-pyrid-4-yl-1H-indazol-5-yl)urea] | 100 to 500 | 7790 | –
CN1CCCCC1C(NC(=O)Nc1ccc2[nH]nc(-c3nc4ccccc4[nH]3)c2c1)c1ccccc1 [Ex 17, 1-[3-(1H-Benzimidazol-2-yl)-1H-indazol-5-yl]-3-[(1-methylpiperid-2-yl)(phenyl)methyl]urea((S,2S),(R,2R))] | < 100 | – | IC50 ([3]; Mus musculus, Fibroblast): 2230 nM; IC50 ([4]; Homo sapiens, LNCaP-Clone-FGC): 670 nM
CN1CCCCC1C(NC(=O)Nc1cc(F)c2[nH]nc(N)c2c1)c1ccccc1 [Ex 20, 1-(3-Amino-7-fluoro-1H-indazol-5-yl)-3-[(1-methylpiperid-2-yl)(phenyl)methyl]urea((S,2S),(R,2R))] | 100 to 500 | 10000 | –
CN1CCCCC1C(NC(=O)Nc1ccc2[nH]nc(C#Cc3ccccc3)c2c1)c1ccccc1 [Ex 23, 1-[(1-Methylpiperid-2-yl)(phenyl)methyl]-3-[3-(phenylethynyl)-1H-indazol-5-yl]urea((S,2S),(R,2R))] | < 100 | 930 | IC50 [1]: 500 to 2000 nM
CN1CCCCC1C(NC(=O)Nc1ccc2[nH]nc(CCc3ccccc3)c2c1)c1ccccc1 [Ex 27, 1-[(1-Methylpiperid-2-yl)(phenyl)methyl]-3-[3-(2-phenylethyl)-1H-indazol-5-yl]urea((S,2S),(R,2R))] | 100 to 500 | 1500 to 7000 | –
(7-Fluoro-1H-indazol-5-yl)-(S)-(3,4-dichlorophenyl)-(S)-piperid-2-ylmethyl carbamate [Ex 48] | < 100 | – | IC50 [3]: 295 nM; IC50 [5]: 505 nM; IC50 [4]: 1350 nM; IC50 [6]: 1500 nM
